Literature values in article PMC11705955, “Lack of activity of HIV-1 integrase strand-transfer inhibitors on recombinase activating gene (RAG) activity at clinically relevant concentrations” (Microbiology Spectrum, 2024).

How the values were obtained:
T or B cells = conditions: cited from earlier work
RAG1 = conditions: biolayer interferometry; read-out: Dissociation constant from RAG1; cited from earlier work
[1] = clinical concentrations; cited from earlier work
immunological competence = tested on: immunological competence; design: method as in PMID 22790968; conditions: TCR Vβ usage by flow cytometry and T cell-dependent antibody response; cited from earlier work
murine RAG1/RAG2 = tested on: murine RAG1/RAG2; design: method as in PMID 11756686; conditions: read-out: IC50 on RAG1/RAG2 in vitro; cited from earlier work

Compound | Effect on T or B cells in treated mice (T or B cells) | Kd (RAG1) | Free drug fraction [1] | Impact on immunological competence in juvenile rats (immunological competence) | IC50 (murine RAG1/RAG2)
COc1cc2c(cc1Cc1cccc(Cl)c1F)c(=O)c(C(=O)O)cn2[C@H](CO)C(C)C [EVG, elvitegravir] | did not show a large decrease in T or B cells | 32.5 µM | 0.48% | – | –
C[C@@H]1CCO[C@H]2Cn3cc(C(=O)NCc4ccc(F)cc4F)c(=O)c(O)c3C(=O)N12 [DTG, dolutegravir] | – | – | 0.70% | no impact on immunological competence | –
O=C(/C=C(\O)c1nnn[nH]1)c1c[nH]c2ccc(Cl)cc12 [p8, 5-CITEP] | – | – | – | – | 200 µM
